Test results from US10526327B2, “Histone demethylase inhibitors” (CELGENE QUANTICEL RESEARCH, INC., priority 2013, dated 2020).
pIC50: −log10 of the molar value.

Target: T1, Jarid1A (Homo sapiens, UniProt P29375)
T1 construct: purchased BPS Bioscience 50110
T1 sequence (P29375 1-1090): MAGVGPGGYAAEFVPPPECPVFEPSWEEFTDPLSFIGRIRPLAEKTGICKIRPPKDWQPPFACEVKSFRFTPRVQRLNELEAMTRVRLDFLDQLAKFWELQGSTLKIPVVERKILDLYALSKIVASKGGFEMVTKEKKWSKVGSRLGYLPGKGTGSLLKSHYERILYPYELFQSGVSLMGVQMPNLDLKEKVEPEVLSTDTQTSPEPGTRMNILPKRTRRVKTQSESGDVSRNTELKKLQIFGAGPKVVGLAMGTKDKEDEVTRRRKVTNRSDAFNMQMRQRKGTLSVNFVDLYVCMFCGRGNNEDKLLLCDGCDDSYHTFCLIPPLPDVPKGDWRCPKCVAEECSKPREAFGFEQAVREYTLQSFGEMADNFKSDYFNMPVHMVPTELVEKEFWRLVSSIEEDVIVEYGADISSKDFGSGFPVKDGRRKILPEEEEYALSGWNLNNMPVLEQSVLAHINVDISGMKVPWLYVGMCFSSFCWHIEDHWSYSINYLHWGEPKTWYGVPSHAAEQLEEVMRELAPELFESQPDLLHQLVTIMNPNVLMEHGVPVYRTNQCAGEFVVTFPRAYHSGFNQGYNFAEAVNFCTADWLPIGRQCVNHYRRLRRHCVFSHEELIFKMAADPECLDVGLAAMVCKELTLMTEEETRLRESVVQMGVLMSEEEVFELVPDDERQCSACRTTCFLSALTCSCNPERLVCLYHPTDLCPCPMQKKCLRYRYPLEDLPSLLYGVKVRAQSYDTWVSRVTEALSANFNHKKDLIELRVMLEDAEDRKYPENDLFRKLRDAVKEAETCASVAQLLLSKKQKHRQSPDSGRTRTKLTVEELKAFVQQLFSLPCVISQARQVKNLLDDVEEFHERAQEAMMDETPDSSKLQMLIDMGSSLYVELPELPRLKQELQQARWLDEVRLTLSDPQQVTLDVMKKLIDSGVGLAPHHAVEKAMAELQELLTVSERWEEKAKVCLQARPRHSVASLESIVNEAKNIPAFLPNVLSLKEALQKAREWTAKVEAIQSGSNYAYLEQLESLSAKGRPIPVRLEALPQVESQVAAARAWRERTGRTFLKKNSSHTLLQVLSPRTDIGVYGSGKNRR
Experiment: Jarid1A in vitro enzyme inhibition assay (TR-FRET)
Format: biochemical
Source text: This assay determines the ability of a test compound to inhibit Jarid1A, Jarid1B, and JMJD2C demethylase activity. Baculovirus expressed Jarid1A (GenBank Accession #NM_001042603, AA1-1090) was purchased from BPS Bioscience (Cat#50110). Baculovirus expressed Jarid1B (GenBank Accession #NM_006618, AA 2-751) was purchased from BPS Bioscience (Cat #50121) or custom made by MolecularThroughput. Baculovirus expressed JMJD2C (GenBank Accession #BC143571, AA 2-372) was purchased from BPS Bioscience (Cat#50105).
The enzymatic assay of Jarid1A activity is based upon Time Resolved-Fluorescence Resonance Energy Transfer (TR-FRET) detection. The ability of test compounds to inhibit the activity of Jarid1A was determined in 384-well plate format under the following reaction conditions: 1 nM Jarid1A, 300 nM H3K4me3-biotin labeled peptide (Anaspec cat #64357), 2 μM alpha-ketoglutaric acid in assay buffer of 50 mM HEPES, pH7.3, 0.005% Brij35, 0.5 mM TCEP, 0.2 mg/ml BSA, 50 μM sodium L-ascorbate, and 2 μM ammonium iron(II) sulfate. Reaction product was determined quantitatively by TR-FRET after the addition of detection reagent Phycolink Streptavidin-allophycocyanin (Prozyme) and Europium-anti-mono-or di-methylated histone H3 lysine 4 (H3K4me1-2) antibody (PerkinElmer) in the presence of 5 mM EDTA in LANCE detection buffer (PerkinElmer) at a final concentration of 25 nM and 1 nM, respectively.
The assay reaction was initiated by the following: 2 μl of the mixture of 900 nM H3K4me3-biotin labeled peptide and 6 μM alpha-ketoglutaric acid with 2 μl of 11-point serial diluted inhibitor in 3% DMSO was added to each well of plate, followed by the addition of 2 μl of 3 nM Jarid1A to initiate the reaction. The reaction mixture was incubated at room temperature for 30 minutes, and terminated by the addition of 6 μl of 5 mM EDTA in LANCE detection buffer containing 50 nM Phycolink Streptavidin-allophycocyanin and 2 nM Europium-anti-H3K4me1-2 antibody. Plates were read by EnVisionMultilabel Reader in TR-FRET mode (excitation at 320 nm, emission at 615 nm and 665 nm) after 1 hour incubation at room temperature. A ratio was calculated (665/615) for each well and fitted to determine inhibition constant (IC50).

For `Oc1nc(Oc2cccc(F)c2F)nc2cnccc12` [Example 42, 2-(2,3-difluorophenoxy)pyrido[3,4-d]pyrimidin-4-ol], the pIC50 was ≥ 7.00.

With `Oc1nc(Oc2ccc(Cl)cc2)nc2cnccc12` [Example 49, 2-(4-chlorophenoxy)pyrido[3,4-d]pyrimidin-4-ol] the pIC50 was ≥ 7.00.

For `Oc1nc(OCC2CCC2)nc2cnccc12` [Example 11, 2-(cyclobutylmethoxy)-3H-pyrido[3,4-d]pyrimidin-4-one], the pIC50 was 6.00 to 7.00.

For `CC(C)(C)OC(=O)N1CCC(n2cc(Oc3nc(O)c4ccncc4n3)cn2)CC1` [Example 88, tert-butyl 4-[4-(4-hydroxypyrido[3,4-d]pyrimidin-2-yl)oxypyrazol-1-yl]piperidine-1-carboxylate], the pIC50 was ≥ 7.00.

`O=S(=O)(c1ccccc1)N1CCC(n2cc(Oc3nc(O)c4ccncc4n3)cn2)CC1` [Example 95, 2-[1-[1-(benzenesulfonyl)piperidin-4-yl]pyrazol-4-yl]oxypyrido[3,4-d]pyrimidin-4-ol] was tested, and the pIC50 was ≥ 7.00.

In the case of `CCOc1c(F)cc(Oc2nc(O)c3ccncc3n2)cc1F` [Example 45, 2-(4-ethoxy-3,5-difluorophenoxy)pyrido[3,4-d]pyrimidin-4-ol], the pIC50 was ≥ 7.00.

In the case of `COc1nc(O)c2ccnc(-c3cn(C)cn3)c2n1` [Example 68, 2-methoxy-8-(1-methyl-1H-imidazol-4-yl)pyrido[3,4-d]pyrimidin-4-ol], the pIC50 was ≥ 7.00.

In the case of `CC(c1ccccc1)n1cc(Oc2nc(O)c3ccncc3n2)cn1` (stereo not drawn) [Example 99], the pIC50 was ≥ 7.00.

With `CCC(C)Oc1nc(O)c2ccncc2n1` (stereo not drawn) [Example 9, 2-butan-2-yloxy-3H-pyrido[3,4-d]pyrimidin-4-one] the pIC50 was 5.00 to 6.00.

`CCc1cccc(Oc2nc(O)c3ccncc3n2)c1` [Example 57, 2-(3-ethylphenoxy)pyrido[3,4-d]pyrimidin-4-ol] was tested, and the pIC50 was ≥ 7.00.

`Oc1nc(Oc2ccnc(N3CCNCC3)c2)nc2cnccc12` [Example 96, 2-(2-piperazin-1-ylpyridin-4-yl)oxypyrido[3,4-d]pyrimidin-4-ol] was tested, and the pIC50 was ≥ 7.00.

In the case of `CN(C)c1ccc(Oc2nc(O)c3ccncc3n2)cc1` [Example 59, 2-[4-(dimethylamino)phenoxy]pyrido[3,4-d]pyrimidin-4-ol], the pIC50 was ≥ 7.00.

With `Oc1nc(Oc2cnn(C3CCOCC3)c2)nc2cnccc12` [Example 67, 2-{[1-(tetrahydro-2H-pyran-4-yl)-1H-pyrazol-4-yl]oxy}pyrido[3,4-d]pyrimidin-4-ol] the pIC50 was ≥ 7.00.

For `CC(=O)N1CCC(n2cc(Oc3nc(O)c4ccncc4n3)cn2)CC1` [Example 90, 1-[4-[4-(4-hydroxypyrido[3,4-d]pyrimidin-2-yl)oxypyrazol-1-yl]piperidin-1-yl]ethanone], the pIC50 was ≥ 7.00.

In the case of `COc1nc(O)c2ccncc2n1` [Example 8, 2-methoxypyrido[3,4-d]pyrimidin-4-ol], the pIC50 was ≥ 7.00.

`COc1ccc(Oc2nc(O)c3ccncc3n2)cc1F` [Example 53, 2-(3-fluoro-4-methoxyphenoxy)pyrido[3,4-d]pyrimidin-4-ol] was tested, and the pIC50 was ≥ 7.00.

`CC(C)CCn1cc(Oc2nc(O)c3ccnc(-c4cn(C)cn4)c3n2)cn1` [Example 80, 2-[1-(3-methylbutyl)pyrazol-4-yl]oxy-8-(1-methylimidazol-4-yl)pyrido[3,4-d]pyrimidin-4-ol] was tested, and the pIC50 was ≥ 7.00.

For `Cn1cnc(-c2nccc3c(O)nc(OCc4ccccc4)nc23)c1` [Example 101, 8-(1-methylimidazol-4-yl)-2-phenylmethoxypyrido[3,4-d]pyrimidin-4-ol], the pIC50 was ≥ 7.00.

`Cn1cnc(-c2nccc3c(O)nc(OCCO)nc23)c1` [Example 75, 2-(2-hydroxyethoxy)-8-(1-methylimidazol-4-yl)pyrido[3,4-d]pyrimidin-4-ol] was tested, and the pIC50 was ≥ 7.00.

In the case of `Cn1cnc(-c2nccc3c(O)nc(Oc4cnn(C5CCOCC5)c4)nc23)c1` [Example 100, 8-(1-methylimidazol-4-yl)-2-[1-(oxan-4-yl)pyrazol-4-yl]oxypyrido[3,4-d]pyrimidin-4-ol], the pIC50 was ≥ 7.00.

With `CC(C)n1cc(Oc2nc3cnccc3c(=O)[nH]2)cn1` [Example 63, 2-{[1-(propan-2-yl)-1H-pyrazol-4-yl]oxy}pyrido[3,4-d]pyrimidin-4-ol] the pIC50 was ≥ 7.00.

In the case of `COc1cccc(Oc2nc(O)c3ccncc3n2)c1` [Example 44, 2-(3-methoxyphenoxy)pyrido[3,4-d]pyrimidin-4-ol], the pIC50 was ≥ 7.00.

With `Cn1cnc(-c2nccc3c(O)nc(OCCCC(F)(F)F)nc23)c1` [Example 74, 8-(1-methylimidazol-4-yl)-2-(4,4,4-trifluorobutoxy)pyrido[3,4-d]pyrimidin-4-ol] the pIC50 was ≥ 7.00.

In the case of `C=CC(=O)N1CCC(n2cc(Oc3nc(O)c4ccncc4n3)cn2)CC1` [Example 91, 1-[4-[4-(4-hydroxypyrido[3,4-d]pyrimidin-2-yl)oxypyrazol-1-yl]piperidin-1-yl]prop-2-en-1-one], the pIC50 was ≥ 7.00.

With `COc1ccc(Oc2nc(O)c3ccncc3n2)cc1` [Example 48, 2-(4-methoxyphenoxy)pyrido[3,4-d]pyrimidin-4-ol] the pIC50 was ≥ 7.00.

With `Oc1nc(Oc2ccc(F)cc2)nc2cnccc12` [Example 47, 2-(4-fluorophenoxy)pyrido[3,4-d]pyrimidin-4-ol] the pIC50 was ≥ 7.00.

`Cn1cnc(-c2nccc3c(O)nc(OCc4ccc(F)cc4)nc23)c1` [Example 71, 2-[(4-fluorobenzyl)oxy]-8-(1-methyl-1H-imidazol-4-yl)pyrido[3,4-d]pyrimidin-4-ol] was tested, and the pIC50 was ≥ 7.00.

With `O=C(c1ccc(F)cc1)N1CCC(n2cc(Oc3nc(O)c4ccncc4n3)cn2)CC1` [Example 93, (4-fluorophenyl)-[4-[4-(4-hydroxypyrido[3,4-d]pyrimidin-2-yl)oxypyrazol-1-yl]piperidin-1-yl]methanone] the pIC50 was ≥ 7.00.

For `Oc1nc(Oc2ccccc2F)nc2cnccc12` [Example 46, 2-(2-fluorophenoxy)pyrido[3,4-d]pyrimidin-4-ol], the pIC50 was ≥ 7.00.

In the case of `COCCn1cc(Oc2nc(O)c3ccncc3n2)cn1` [Example 64, 2-{[1-(2-methoxyethyl)-1H-pyrazol-4-yl]oxy}pyrido[3,4-d]pyrimidin-4-ol], the pIC50 was ≥ 7.00.

`Cn1cnc(-c2nccc3c(O)nc(OCC(C)(C)O)nc23)c1` [Example 98, 2-(2-hydroxy-2-methylpropoxy)-8-(1-methylimidazol-4-yl)pyrido[3,4-d]pyrimidin-4-ol] showed a pIC50 of 6.00 to 7.00.

`Oc1nc(Oc2cccc(F)c2)nc2cnccc12` [Example 40, 2-(3-fluorophenoxy)pyrido[3,4-d]pyrimidin-4-ol] was tested, and the pIC50 was ≥ 7.00.

`Oc1nc(OCC2CC2)nc2cnccc12` [Example 5, 2-(cyclopropylmethoxy)-3H-pyrido[3,4-d]pyrimidin-4-one] was tested, and the pIC50 was ≥ 7.00.

In the case of `CC(C)c1cccc(Oc2nc(O)c3ccncc3n2)c1` [Example 39, 2-(3-propan-2-ylphenoxy)pyrido[3,4-d]pyrimidin-4-ol], the pIC50 was ≥ 7.00.

`Oc1nc(Oc2cnn(C3CCNCC3)c2)nc2cnccc12` [Example 89, 2-(1-piperidin-4-ylpyrazol-4-yl)oxypyrido[3,4-d]pyrimidin-4-ol] was tested, and the pIC50 was ≥ 7.00.

With `CCCn1cc(Oc2nc(O)c3ccncc3n2)cn1` [Example 54, 2-(1-propylpyrazol-4-yl)oxypyrido[3,4-d]pyrimidin-4-ol] the pIC50 was ≥ 7.00.
